# Reference: article PMC12175894 (Science Advances, 2025)
# “Also recorded” adds a separate entry of the source.
# Experiments:
# 5-HT1AR wildtype [1] = biological target: T1, 5-HT1AR wildtype (Homo sapiens, UniProt P08908); assay: β-arrestin 2 recruitment, enhanced bystander BRET in HEK293T with GRK2; assay type: cell-based; settings: for Emax: HEK-293T, read-out: Emax [% ± SEM], β-arrestin 2 recruitment
# T1 construct: host or cells: HEK293T, HEK293A, HEK293AΔGs, HEK293AΔGi/o, HEK293AΔARRB1/B2
# T1 sequence (P08908 1-422): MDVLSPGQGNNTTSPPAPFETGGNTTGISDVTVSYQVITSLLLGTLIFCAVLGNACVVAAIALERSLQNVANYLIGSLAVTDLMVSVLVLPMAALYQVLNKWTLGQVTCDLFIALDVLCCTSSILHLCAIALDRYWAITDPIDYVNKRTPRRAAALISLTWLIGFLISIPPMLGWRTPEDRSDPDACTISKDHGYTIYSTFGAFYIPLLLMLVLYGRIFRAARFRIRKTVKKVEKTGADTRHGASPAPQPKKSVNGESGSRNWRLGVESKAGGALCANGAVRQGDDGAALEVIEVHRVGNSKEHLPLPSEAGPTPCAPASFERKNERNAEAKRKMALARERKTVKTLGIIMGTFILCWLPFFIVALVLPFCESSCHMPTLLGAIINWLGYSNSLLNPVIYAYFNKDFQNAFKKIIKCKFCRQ
# 5-HT1AR wildtype [2] = biological target: T1, 5-HT1AR wildtype; assay: GloSensor cAMP accumulation in HEK293AΔGi/o; assay type: cell-based; settings: for Emax: read-out: Emax [% ± SEM], cAMP accumulation
# 5-HT1AR wildtype [3] = biological target: T1, 5-HT1AR wildtype; assay: GloSensor inhibition of cAMP accumulation in HEK293AΔGs; assay type: cell-based
# 5-HT1AR wt = biological target: T2, 5-HT1AR wt (Homo sapiens, UniProt P08908); assay: Radioligand competition, displacement of [3H]WAY100635; assay type: binding; settings: fig. S1C, in words
# T2 construct: host or cells: HEK293T, transient; membranes
# T2 sequence (P08908 1-422): T1 sequence (P08908 1-422)
# 5-HT1AR = biological target: T3, 5-HT1AR (Homo sapiens, UniProt P08908); assay: BRET-based cAMP assay (CAMYEL biosensor) in CHO-K1 cells; assay type: cell-based; settings: inhibition of cAMP accumulation, CAMYEL, fig. S1C, in words
# T3 sequence (P08908 1-422): T1 sequence (P08908 1-422)
# 5-HT1AR KO mice = assay: 52°C hot plate in 5-HT1AR KO mice; assay type: in vivo, mouse; settings: 10 mg/kg
# male C56BL/6 mice = assay: 52°C hot plate; assay type: in vivo, mouse; settings: wild-type mice, 10 mg/kg
# [4] = Metabolic stability with rat liver microsomes; assay type: in vitro ADME; settings: after 1 h incubation
# [5] = biological target: human WT 5-HT1AR with C-terminal ARMS2-PK2 (human) (UniProt P08908); assay: split reporter
# [6] = read-out: Emax [% ± SEM], inhibition of cAMP accumulation
molecule,measurement,setting,value
"CCN(CC)C(=O)N[C@H]1C=C2c3cccc4[nH]cc(c34)C[C@H]2N(C)C1 [(S)-(-)lisuride, (S)-(−)-lisuride]","Emax [% ± SEM], β-arrestin 2 recruitment","5-HT1AR wildtype [1]; HEK293T with GRK2, wildtype, relative to serotonin",46 ± 3%
same,"Emax [% ± SEM], cAMP accumulation","5-HT1AR wildtype [2]; HEK293AΔGi/o, wildtype, relative to serotonin",29 ± 4%
same,"Emax [% ± SEM], inhibition of cAMP accumulation","5-HT1AR wildtype [3]; HEK293AΔGs, wildtype, relative to serotonin",68 ± 4%
COc1ccccc1OCCCNCCCOc1ccc2c(c1)NC(=O)CO2 [TA12],5-HT1AR binding relative to ST171 (SAR study),5-HT1AR wt,reduced binding affinity; also recorded: attenuation of binding
same,potency and efficacy / receptor activation relative to ST171 (SAR study),5-HT1AR,attenuation of binding and receptor activation
CSc1ccccc1OCCNCCCOc1ccc2c(c1)NC(=O)CO2 [TA48],potency and efficacy / receptor activation relative to ST171 (SAR study),5-HT1AR,considerable reduction of potency and efficacy
O=C1CCc2ccc(OCCCCN3CCN(c4cccc(Cl)c4Cl)CC3)cc2N1 [aripiprazole],Emax,5-HT1AR wildtype [2],< 5%
same,Emax,"5-HT1AR wildtype [3]; read-out: Emax [% ± SEM], inhibition of cAMP accumulation, HEK293AΔGs, wildtype, relative to serotonin",90 ± 9%
O=C1CC2(CCCC2)CC(=O)N1CCCCN1CCN(c2ncccn2)CC1 [buspirone],Emax,5-HT1AR wildtype [1],< 5%
same,Emax,5-HT1AR wildtype [2],< 5%
same,Emax,5-HT1AR wildtype [3]; [6],58 ± 1%
CN1CC[C@]23c4c5ccc(O)c4O[C@H]2[C@@H](O)C=C[C@H]3[C@H]1C5 [morphine],"response latency, hot plate in 5-HT1AR KO mice",5-HT1AR KO mice,significantly increased the response latency
same,"response latency, 52°C hot plate",male C56BL/6 mice,significantly increased the response latency
"CCCN(CCc1cccs1)[C@H]1CCc2c(O)cccc2C1 [rotigotine, reference compound]",intact substrate remaining,[4],< 15%
O=C1Cc2cc(CCN3CCN(c4nsc5ccccc45)CC3)c(Cl)cc2N1 [ziprasidone],Emax,5-HT1AR wildtype [1],< 5%
same,Emax,5-HT1AR wildtype [2],< 5%
same,"lower potency compared to ST171, Gi/o pathway",5-HT1AR wildtype [3]; HEK293AΔGs,more than 70 fold
same,EC50,"5-HT1AR wildtype [3]; HEK293AΔGs, wildtype, read-out: EC50 [nM ± SEM], inhibition of cAMP accumulation",370 ± 140 nM
same,Emax,5-HT1AR wildtype [3]; [6],57 ± 7%
β-arrestin 2 labeled with the enzyme acceptor (from UniProt P32121 1-409) (natural protein),"Emax of recruitment with ST171, elevated GRK2 (% of serotonin)",[5],15%
same,"Emax of recruitment with ST171, native GRK2 (% of serotonin)",[5],< 5%
